Experimental data reported in US20090030039A1, “Piperidine Derivatives as Cxcr3 Receptor Antagonists” (priority 2006, published 2009).

Biological target: T1, human CXCR3 (Homo sapiens, UniProt P49682)
T1 construct: expressed in transfected cells; host or cells: CHO cells (membrane preparation)
T1 sequence (P49682 1-368): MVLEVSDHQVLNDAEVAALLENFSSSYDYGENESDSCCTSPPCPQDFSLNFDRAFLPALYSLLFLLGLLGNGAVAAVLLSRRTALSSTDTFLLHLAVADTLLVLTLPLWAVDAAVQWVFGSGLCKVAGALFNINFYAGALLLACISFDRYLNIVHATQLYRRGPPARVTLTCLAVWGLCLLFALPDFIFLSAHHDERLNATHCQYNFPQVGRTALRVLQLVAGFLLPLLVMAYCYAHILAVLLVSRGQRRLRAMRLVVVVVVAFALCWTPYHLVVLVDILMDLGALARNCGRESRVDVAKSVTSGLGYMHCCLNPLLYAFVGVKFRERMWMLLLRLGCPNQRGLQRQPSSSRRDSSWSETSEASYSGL
Assay: [35S]GTPγS exchange assay, CXCR3 receptor inhibition (hI-TAC-induced GTPγS-binding)
Format: biochemical
Conditions: -log IC50 (molar) inhibiting 50% of specific I-TAC-induced GTPγS-binding; membranes of human CXCR3-transfected CHO cells
Protocol: CXCR3 Receptor Inhibition was Examined in a [^35S]GTPγS Exchange Assay
The exchange of guanosine 5′-[^35S]triphosphate was measured on membranes of human CXCR3-transfected CHO cells. [^35S]GTPγS exchange assays were performed in 96-well plates with 10 μg of membrane protein/well using basic flashplates (Perkin Elmer). Compounds were dissolved in DMSO and diluted with incubation buffer to yield required concentrations with 9% DMSO. Incubation buffer is composed of 20 mM HEPES, 100 mM NaCl, 3 μM GDP and 1 mM MgCl2, pH 7.4. […] Compound, membranes, hI-TAC (interferon-inducible T-cell alpha chemoattractant) and [^35S]GTPγS were added in a total volume of 200 μl. First, 20 μl of the appropriate compound dilution and 140 μl membranes from CXCR3-CHO cells were dissolved in membrane incubation buffer and pre-incubated for 30 minutes at 30° C. Then, 20 μl of hI-TAC dissolved at 30 nM in incubation buffer was added to the membranes and the mixture containing 1% of DMSO was incubated for another 30 minutes at 30° C. […] After 1 minute shaking and 30 minutes incubation at 30° C., flashplates were centrifuged for 5 minutes at 2500 rpm at room temperature. Flashplate bound radioactivity was determined by liquid scintillation counting. Basal GTPγS-binding was measured in 8 wells with membranes incubated in the same volume with 1% DMSO, without I-TAC. Maximal GTPγS-binding was measured in 8 wells with membranes incubated with 1% DMSO and 3 nM I-TAC. […] IC50 values were calculated using non-linear regression in Graphpad Prism.

Row | pIC50 | Structure (SMILES)
1 | 6.2 | O=C1CCC(c2ccncc2)(C2CCN(Cc3ccc(Br)cc3)CC2)C(=O)N1 (stereo not shown) [Compound 2]
2 | 6.3 | O=C1CCC(c2ccccc2)(C2CCN(Cc3ccc(Br)cc3)CC2)CN1 (stereo not shown) [Compound 5]
3 | 6.2 | O=C1CCC(c2cccc(C(=O)O)c2)(C2CCN(Cc3ccc(Br)cc3)CC2)C(=O)N1 (stereo not shown) [Compound 23]
4 | 6.3 | O=C1CCC(c2ccccn2)(C2CCN(Cc3ccc(Br)cc3)CC2)C(=O)N1 (stereo not shown) [Compound 30]
5 | 5.5 | CNC(=O)c1cccc(C2(C3CCN(Cc4ccc(Br)cc4)CC3)CCC(=O)NC2=O)c1 (stereo not shown) [Compound 32]
6 | 6.1 | O=C1CCC(c2cccc(C(=O)N3CCOCC3)c2)(C2CCN(Cc3ccc(Br)cc3)CC2)C(=O)N1 (stereo not shown) [Compound 37]
7 | 6.0 | CSCN1C(=O)CCC(c2ccccc2)(C2CCN(Cc3ccc(Br)cc3)CC2)C1=O (stereo not shown) [Compound 38]
8 | 6.0 | O=C1CCC(c2cccc(O)c2)(C2CCN(Cc3ccc(Br)cc3)CC2)C(=O)N1 (stereo not shown) [Compound 39]

Row | Structure (SMILES) | pIC50
9 | NC(=O)c1cccc(C2(C3CCN(Cc4ccc(Br)cc4)CC3)CCC(=O)NC2=O)c1 (stereo not shown) [Compound 33] | 5.5

Same assay, conditions: -log IC50 (molar) inhibiting 50% of specific I-TAC-induced GTPγS-binding; membranes of human CXCR3-transfected CHO cells; read-out: pIC50 (converted)

Row | IC50 | Structure (SMILES)
10 | 0.1 µM | O=C1CCC(c2ccc(F)cc2F)(C2CCN(Cc3ccc(Br)cc3)CC2)C(=O)N1 (racemic) [Compound 194]
11 | 2 µM | CC(c1ccc(Br)cc1)N1CCC(C2(c3ccccc3)CCC(=O)NC2=O)CC1 (single isomer, unassigned) [Compound 17]
12 | 0.398 µM | CC(c1ccc(Br)cc1)N1CCC(C2(c3ccccc3)CCC(=O)NC2=O)CC1 (single isomer, unassigned) [Compound 18]
13 | 0.0631 µM | O=C1CCC(c2ccc(F)cc2F)(C2CCN(Cc3ccc(Br)cc3)CC2)C(=O)N1 (single isomer, unassigned) [Compound 166]
14 | 0.398 µM | CC(c1ccc(Br)cc1)N1CCC(C2(c3ccccc3)CCC(=O)NC2=O)CC1 (stereo not shown) [Compound 1]
15 | 0.794 µM | O=C1CCC(c2cccnc2)(C2CCN(Cc3ccc(Cl)cc3)CC2)C(=O)N1 (stereo not shown) [Compound 4]
16 | 0.158 µM | COc1ccc(S(=O)(=O)O)cc1C1(C2CCN(Cc3ccc(Br)cc3)CC2)CCC(=O)NC1=O (stereo not shown) [Compound 6]
17 | 0.794 µM | CC(c1ccc(Br)cc1)N1CCC(C2(c3ccccc3)CCCNC2=O)CC1 (stereo not shown) [Compound 11]
18 | 0.398 µM | O=C1CCC(c2ccc(F)cc2)(C2CCN(Cc3ccc(Br)cc3F)CC2)CN1 (stereo not shown) [Compound 15]
19 | 1.26 µM | O=C1CCC(c2ccccc2)(C2CCN(Cc3ccc(Cl)cc3)CC2)C(=O)N1 (stereo not shown) [Compound 19]
20 | 0.794 µM | O=C1CCC(c2ccccc2)(C2CCN(Cc3ccc(Cl)cc3)CC2)C(=O)N1 (stereo not shown) [Compound 20]
21 | 0.251 µM | O=C1CCC(c2cccc(C(=O)O)c2)(C2CCN(Cc3ccc(Cl)c(F)c3)CC2)C(=O)N1 (stereo not shown) [Compound 22]
22 | 1 µM | CC(=O)Nc1ccccc1C1(C2CCN(Cc3ccc(Br)cc3)CC2)CCC(=O)NC1=O (stereo not shown) [Compound 24]
23 | 0.794 µM | O=C1CCC(c2ccccn2)(C2CCN(Cc3ccc(Cl)c(F)c3)CC2)C(=O)N1 (stereo not shown) [Compound 29]
24 | 0.2 µM | O=C1CCC(c2ccccc2)(C2CCN(Cc3ccc(Cl)c(F)c3)CC2)C(=O)N1 (stereo not shown) [Compound 31]
25 | 1.26 µM | CN1CCN(C(=O)c2cccc(C3(C4CCN(Cc5ccc(Br)cc5)CC4)CCC(=O)NC3=O)c2)CC1 (stereo not shown) [Compound 34]
26 | 3.16 µM | O=C1CCC(c2ccccc2)(C2CCN(Cc3ccc(F)cc3)CC2)C(=O)N1 (stereo not shown) [Compound 43]
27 | 5.01 µM | O=C1CCC(c2ccccc2)(C2CCN(Cc3ccc(F)cc3)CC2)C(=O)N1 (stereo not shown) [Compound 44]
28 | 3.98 µM | O=C1CCC(c2ccccc2)(C2CCN(Cc3ccc(F)cc3)CC2)C(=O)N1 (stereo not shown) [Compound 45]
29 | 2.51 µM | O=C1CCC(c2cccc(Cl)c2)(C2CCN(Cc3ccc(F)c(F)c3F)CC2)C(=O)N1 (stereo not shown) [Compound 51]
30 | 1.26 µM | O=C1CCC(c2ccc(F)cc2)(C2CCN(Cc3ccc(F)c(F)c3F)CC2)C(=O)N1 (stereo not shown) [Compound 54]
31 | 5.01 µM | O=C1CCC(c2ccc(F)cc2)(C2CCN(Cc3ccc(F)c(Cl)c3)CC2)C(=O)N1 (stereo not shown) [Compound 56]
32 | 3.98 µM | O=C1CCC(c2ccccc2)(C2CCN(Cc3ccc(F)c(Br)c3)CC2)C(=O)N1 (stereo not shown) [Compound 57]
33 | 7.94 µM | O=C1CCC(c2ccc(F)cc2)(C2CCN(Cc3ccc(F)c(Br)c3)CC2)C(=O)N1 (stereo not shown) [Compound 58]
34 | 3.16 µM | COc1cc(CN2CCC(C3(c4ccccc4)CCC(=O)NC3=O)CC2)ccc1F (stereo not shown) [Compound 60]
35 | 1 µM | O=C1CCC(c2ccccc2)(C2CCN(Cc3ccc(Cl)cc3)CC2)C(=O)N1 (stereo not shown) [Compound 61]
36 | 0.794 µM | O=C1CCC(c2ccccc2)(C2CCN(Cc3ccc(Cl)cc3)CC2)C(=O)N1 (stereo not shown) [Compound 62]
37 | 2 µM | O=C1CCC(c2cccc(Cl)c2)(C2CCN(Cc3ccc(Cl)cc3)CC2)C(=O)N1 (stereo not shown) [Compound 63]
38 | 0.794 µM | O=C1CCC(c2cccc(C(=O)O)c2)(C2CCN(Cc3ccc(Cl)cc3)CC2)C(=O)N1 (stereo not shown) [Compound 66]
39 | 0.794 µM | O=C1CCC(c2ccc(F)cc2)(C2CCN(Cc3ccc(Cl)cc3)CC2)C(=O)N1 (stereo not shown) [Compound 68]

Row | Structure (SMILES) | IC50
40 | O=C1CCC(c2ccc(F)cc2F)(C2CCN(Cc3ccc(Cl)c(F)c3)CC2)C(=O)N1 (racemic) [Compound 202] | 0.251 µM
41 | O=C1CCC(c2ccccc2)(C2CCN(Cc3ccc(Br)cc3)CC2)C(=O)N1 (single isomer, unassigned) [Compound 14] | 0.631 µM
42 | CC(c1ccc(Br)cc1)N1CCC(C2(c3ccc(F)cc3)CCC(=O)NC2=O)CC1 (stereo not shown) [Compound 3] | 0.2 µM
43 | O=C1CCC(c2ccccc2)(N2CCN(Cc3ccc(Br)cc3)CC2)C(=O)N1 (stereo not shown) [Compound 7] | 0.251 µM
44 | O=C1CCC(c2ccccc2)(C2CCN(Cc3ccc(Br)c(F)c3)CC2)C(=O)N1 (stereo not shown) [Compound 16a] | 0.316 µM
45 | O=C1CCC(c2ccc(F)cc2)(C2CCN(Cc3ccc(Cl)c(F)c3)CC2)C(=O)N1 (stereo not shown) [Compound 26] | 0.2 µM
46 | O=C1CCC(c2ccccc2)(N2CCN(Cc3ccc(Cl)c(F)c3)CC2)C(=O)N1 (stereo not shown) [Compound 27] | 2.51 µM
47 | O=C1CCC(c2ccccc2)(C2CCN(Cc3ccc4ccccc4c3)CC2)C(=O)N1 (stereo not shown) [Compound 28] | 3.98 µM
48 | COC(=O)c1ccc(CN2CCC(C3(c4ccccc4)CCC(=O)NC3=O)CC2)cc1 (stereo not shown) [Compound 36] | 1.26 µM
49 | COc1cc(F)ccc1CN1CCC(C2(c3ccccc3)CCC(=O)NC2=O)CC1 (stereo not shown) [Compound 46] | 3.98 µM
50 | O=C1CCC(c2ccccc2)(C2CCN(Cc3ccc(F)c(F)c3)CC2)C(=O)N1 (stereo not shown) [Compound 47] | 2 µM
51 | O=C1CCC(c2ccc(F)cc2)(C2CCN(Cc3ccc(F)c(F)c3)CC2)C(=O)N1 (stereo not shown) [Compound 49] | 3.98 µM
52 | O=C1CCC(c2ccccc2)(C2CCN(Cc3ccc(F)c(F)c3F)CC2)C(=O)N1 (stereo not shown) [Compound 50] | 1.58 µM
53 | Cc1cccc(C2(C3CCN(Cc4ccc(F)c(F)c4F)CC3)CCC(=O)NC2=O)c1 (stereo not shown) [Compound 52] | 1.26 µM
54 | COc1cccc(C2(C3CCN(Cc4ccc(F)c(F)c4F)CC3)CCC(=O)NC2=O)c1 (stereo not shown) [Compound 53] | 2 µM
55 | O=C1CCC(c2ccccc2)(C2CCN(Cc3ccc(F)c(Cl)c3)CC2)C(=O)N1 (stereo not shown) [Compound 55] | 3.16 µM
56 | Cc1cc(CN2CCC(C3(c4ccccc4)CCC(=O)NC3=O)CC2)ccc1F (stereo not shown) [Compound 59] | 1.26 µM
57 | Cc1cccc(C2(C3CCN(Cc4ccc(Cl)cc4)CC3)CCC(=O)NC2=O)c1 (stereo not shown) [Compound 64] | 2 µM
58 | COc1cccc(C2(C3CCN(Cc4ccc(Cl)cc4)CC3)CCC(=O)NC2=O)c1 (stereo not shown) [Compound 67] | 1 µM

Same assay, conditions: pIC50, -log IC50 (molar) inhibiting 50% of specific I-TAC-induced GTPγS-binding; membranes of human CXCR3-transfected CHO cells

Row | Structure (SMILES) | IC50
59 | O=C1CCC(c2ccccc2)(C2CCN(Cc3ccc(Br)cc3)CC2)C(=O)N1 (single isomer, unassigned) [Compound 13] | 0.316 µM
60 | COc1cccc(C2(C3CCN(Cc4ccc(Br)cc4)CC3)CCC(=O)NC2=O)c1 (stereo not shown) [Compound 8] | 1.58 µM
61 | O=C1CCC(c2ccccc2)(C2CCN(Cc3ccc(Br)cc3)CC2)C(=O)N1 (stereo not shown) [Compound 10] | 0.316 µM
62 | Nc1cccc(C2(C3CCN(Cc4ccc(Br)cc4)CC3)CCC(=O)NC2=O)c1 (stereo not shown) [Compound 35] | 0.316 µM
63 | O=C1CCC(c2cccc(C(F)(F)F)c2)(C2CCN(Cc3ccc(Cl)cc3)CC2)C(=O)N1 (stereo not shown) [Compound 65] | 2.51 µM

Same assay, conditions: read-out: pIC50 (converted)

Row | IC50 | Structure (SMILES)
64 | 2 µM | Cc1cccc(C2(C3CCN(Cc4ccc(Br)cc4)CC3)CCC(=O)NC2=O)c1 (stereo not shown) [Compound 9]
